Several values for one entry are separate records, joined by “and”; a condition that tells them apart may be missing. Equal entries are not always repeated. Structures can show the parent of a compound that is named as a salt. Where two headings read alike, the source gives them in different places.
Experiments:
[1] = tested on: Tobacco mosaic virus (TMV); assay: Antiphytoviral activity assay (local lesions on host plant leaves); assay type: in vivo, Tobacco mosaic virus on Datura stramonium; conditions: Datura stramonium leaves, compound 100 µg/mL inoculated simultaneously with TMV; for Percentage of inhibition of local lesions: vs control plants
Protocol: Leaves of Nicotiana tabacum L. cv. Samsun plants systemically infected with Tobacco mosaic virus (TMV) were ground in 0.06 mol/L phosphate buffer, pH 7.0 (1:1, w/v) to prepare virus inocula. […] Leaves of the local host Datura stramonium L. were dusted with silicon carbide (Sigma-Aldrich, St. Louis, MO, USA) before virus inoculation, and the inoculum was diluted with inoculation buffer to obtain 5–20 lesions per inoculated leaf. Experiments were performed when the experimental plants reached the 4–6 leaf stage.
The tested QAS (10 mg/mL) were dissolved in 4% DMSO and added to the virus inocula at a final concentration of 100 µg/mL. DMSO was added to the control virus inocula at the same concentration. The control and treated plants were then rubbed with the prepared inocula and the antiviral activity of the tested compounds was evaluated by the percentage inhibition of the number of local lesions on the leaves of the treated and control plants as described in [40]. The obtained data were analyzed in Excel (Microsoft Office) and significant differences were determined by t-test.

[2] = tested on: Bacillus cereus ATCC14579; assay: Broth microdilution assay (MIC); assay type: cell-based
Protocol: (§1) The antibacterial activity of all compounds was evaluated by determining the minimum inhibitory concentration (MIC), which is defined as the lowest concentration of the compound at which no visible bacterial growth is detected. The compounds were tested against representatives of Gram-positive and Gram-negative strains, including the ESKAPE bacterium Staphylococcus aureus ATCC25923 and the clinical isolate of methicillin-resistant S. aureus (MRSA), which are known for their pathogenicity.
(§2) All microbial strains were maintained at ™80 °C for long-term storage and subcultured on Mueller-Hinton (MH) agar (Biolife, Italy) prior to broth microdilution experiments. The MH plates were stored at +4 °C for no longer than one month.
(§3) Antibacterial activity was evaluated using the Broth Microdilution Assay according to the Clinical and Laboratory Standard Institute’s Methods for Dilution Antimicrobial Susceptibility Test for Bacteria That Grow Aerobically; Approved Standard-Tenth Edition.
(§4) The stock solution of QAS (10 mg/mL) was prepared in 4% DMSO. Then, 100 µL of the tested QAS was added to the first well of the microtiter plate. Twofold serial dilutions in Muller-Hinton broth were performed over the entire plate at a concentration range of 5 mg/mL to 5 µg/mL. […] The minimum inhibitory concentration (MIC) was determined as the lowest concentration at which no visually detectable bacterial growth occurred in the wells.

[3] = tested on: Enterococcus faecalis ATCC29212; assay: Broth microdilution assay (MIC); assay type: cell-based
Protocol: as §1, §2, §3, §4

[4] = tested on: Escherichia coli ATCC25922; assay: Broth microdilution assay (MIC); assay type: cell-based
Protocol: as §1, §2, §3, §4

[5] = tested on: Listeria monocytogenes ATCC7644; assay: Broth microdilution assay (MIC); assay type: cell-based
Protocol: as §1, §2, §3, §4

[6] = tested on: Pseudomonas aeruginosa ATCC27853; assay: Broth microdilution assay (MIC); assay type: cell-based
Protocol: as §1, §2, §3, §4

[7] = tested on: Staphylococcus aureus ATCC25923; assay: Broth microdilution assay (MIC); assay type: cell-based; conditions: Staphylococcus aureus
Protocol: as §1, §2, §3, §4

[8] = tested on: methicillin-resistant Staphylococcus aureus clinical strain MRSA; assay: Broth microdilution assay (MIC); assay type: cell-based
Protocol: as §1
(§5) The collection included five Gram-positive strains, including Staphylococcus aureus (ATCC 25923 and a methicillin-resistant Staphylococcus aureus clinical strain MRSA), Bacillus cereus ATCC 14579, Enterococcus faecalis ATCC 29212, and Listeria monocytogenes ATCC 7644; and three Gram-negative strains: Escherichia coli ATCC 25922, Pseudomonas aeruginosa ATCC 27853 and the food isolate Salmonella enterica. All microbial strains were maintained at ™80 °C for long-term storage and subcultured on Mueller-Hinton (MH) agar (Biolife, Italy) prior to broth microdilution experiments. The MH plates were stored at +4 °C for no longer than one month.
as §3
(§6) The stock solution of QAS (10 mg/mL) was prepared in 4% DMSO. Then, 100 µL of the tested QAS was added to the first well of the microtiter plate. Twofold serial dilutions in Muller-Hinton broth were performed over the entire plate at a concentration range of 5 mg/mL to 5 µg/mL. To each well, 50 µL of mid-exponentially grown inoculum containing 10^5 CFU/mL in Mueller-Hinton broth was added and incubated at 37 °C for 18 hours. The minimum inhibitory concentration (MIC) was determined as the lowest concentration at which no visually detectable bacterial growth occurred in the wells.

[9] = tested on: Salmonella enterica food isolate; assay: Broth microdilution assay (MIC); assay type: cell-based; conditions: S. enterica food isolate
Protocol: as §1, §5, §3, §6

[10] = 18 h, B. cereus ATCC14579, read-out: MIC
[11] = 18 h, E. faecalis ATCC29212, read-out: MIC
[12] = ATCC25922, 18 h, E. coli ATCC25922, read-out: MIC
[13] = 18 h, L. monocytogenes ATCC7644, read-out: MIC
[14] = 18 h, P. aeruginosa ATCC27853, read-out: MIC
[15] = S. aureus ATCC25923, 18 h, 37 °C, read-out: MIC
[16] = ATCC25922, 18 h, E. coli ATCC25922

| SMILES | melting point [°C] | MIC [2, 10] [µg/mL] | MIC [3, 11] | MIC [4, 12] | MIC [5, 13] | MIC [6, 14] | MIC [7, 15] [µg/mL] | MIC ([8]; MRSA, 18 h) [µg/mL] | MIC ([9]; 18 h) | MIC ([2]; ATCC14579, 18 h) [µg/mL] | MIC ([3]; ATCC29212, 18 h) | MIC ([5]; ATCC7644, 18 h) | MIC ([6]; ATCC27853, 18 h) | MIC ([7]; ATCC25923, 18 h) [µg/mL] | other results |
| --- | --- | --- | --- | --- | --- | --- | --- | --- | --- | --- | --- | --- | --- | --- | --- |
| ON=Cc1cc[n+](Cc2ccc(C(F)(F)F)cc2)cc1 (as salt: bromide) [Py-BnCF3, N-(p-(trifluoromethyl))benzyl-4-hydroxyiminomethylpyridinium bromide] | 186 to 187 |  |  |  |  |  |  |  |  |  |  |  |  |  |  |
| ON=Cc1cc[n+](Cc2ccc(OC(F)(F)F)cc2)cc1 (as salt: bromide) [Py-BnOCF3, N-(p-trifluoromethoxy)benzyl-4-hydroxyiminomethylpyridinium bromide] | 175 to 176 |  |  |  |  |  |  |  |  |  |  |  |  |  |  |
| CCCCCCCCCCCC[N+](C)(C)Cc1ccccc1.[Br-] [BAB, benzalkonium bromide, reference compound] |  |  |  |  |  |  |  |  |  |  |  |  |  |  | Number of local lesions (LLN ± SD) [1]: 0.2 and 0.2±0.2; Percentage of inhibition of local lesions [1]: 98.7% |
| CO/N=C(\C(=O)N[C@@H]1C(=O)N2C(C(=O)O)=C(COC(C)=O)CS[C@H]12)c1csc(N)n1 [Cefotaxime, reference compound] |  |  |  |  |  |  |  |  |  |  |  |  |  |  | MIC ([2]; B. cereus ATCC14579, standards, read-out: MIC): 3.7 µg/mL and 10 µM; MIC ([3]; E. faecalis ATCC29212, standards, read-out: MIC): 29.8 µg/mL and 60 µM; MIC ([4]; ATCC25922, E. coli ATCC25922, standards, read-out: MIC): 0.2 µg/mL and 0.4 µM; MIC ([5]; L. monocytogenes ATCC7644, standards, read-out: MIC): 3.7 µg/mL and 10 µM; MIC ([6]; P. aeruginosa ATCC27853, standards, read-out: MIC): 59.7 µg/mL and 130 µM; MIC ([7]; S. aureus ATCC25923, standards, read-out: MIC): 3.7 µg/mL and 10 µM; MIC ([8]; S. aureus clinical/MRSA, read-out: MIC): > 119 µg/mL; MIC ([8]; S. aureus clinical/MRSA, standards, read-out: MIC): > 250 µM; MIC ([9]; standards): 0.1 µg/mL and 0.2 µM |
| ON=Cc1cc[n+](Cc2ccc(Br)cc2)cc1 [Py-BnBr] |  | 2500 | 2500 µg/mL and 6720 µM | 160 µg/mL | 2500 µg/mL and 6720 µM | 5000 µg/mL and 13400 µM | 1250 | 1250 | 630 µg/mL |  |  |  |  |  |  |
| ON=Cc1cc[n+](Cc2ccc(C(F)(F)F)cc2)cc1 [Py-BnCF3, N-(p-(trifluoromethyl))benzyl-4-hydroxyiminomethylpyridinium bromide] |  | 1250 | 2500 µg/mL and 6920 µM | 2500 µg/mL and 6920 µM | 2500 µg/mL and 6920 µM | 5000 µg/mL and 13800 µM | 630 | 1250 | 1250 µg/mL and 3460 µM |  |  |  |  |  |  |
| Cc1ccc(C[n+]2ccc(C=NO)cc2)cc1 [Py-BnCH3] |  | 5000 | 2500 µg/mL and 8140 µM | 5000 µg/mL and 16300 µM | 1250 µg/mL and 4070 µM | > 5000 µg/mL and > 16300 µM | 2500 | 5000 | 630 µg/mL |  |  |  |  |  |  |
| ON=Cc1cc[n+](Cc2ccc(Cl)cc2)cc1 [Py-BnCl] |  | 5000 | 5000 µg/mL and 15300 µM | 310 µg/mL | 2500 µg/mL and 7630 µM | 5000 µg/mL and 15300 µM | 1250 | 2500 | 2500 µg/mL and 7630 µM |  |  |  |  |  |  |
| ON=Cc1cc[n+](Cc2ccc(F)cc2)cc1.[Br-] [Py-BnF, N-p-fluorobenzyl-4-hydroxyiminomethylpyridinium bromide] | 181 to 183 |  |  |  |  |  |  | > 5000 | > 5000 µg/mL and > 16100 µM | > 5000 | > 5000 µg/mL and > 16100 µM | > 5000 µg/mL and > 16100 µM | > 5000 µg/mL and > 16100 µM | 5000 | MIC [4, 16]: 630 µg/mL |
| O=[N+]([O-])c1ccc(C[n+]2ccc(C=NO)cc2)cc1 [Py-BnNO2] |  |  |  |  |  |  |  | > 5000 | 5000 µg/mL and 14800 µM | > 5000 | > 5000 µg/mL and > 14800 µM | > 5000 µg/mL and > 14800 µM | > 5000 µg/mL and > 14800 µM | 5000 | MIC ([4]; ATCC25922, 18 h): 2500 µg/mL and 7390 µM |
| ON=Cc1cc[n+](Cc2ccc(OC(F)(F)F)cc2)cc1 [Py-BnOCF3, N-(p-trifluoromethoxy)benzyl-4-hydroxyiminomethylpyridinium bromide] |  | 2500 | 2500 µg/mL and 6630 µM | 310 µg/mL | 2500 µg/mL and 6630 µM | 2500 µg/mL and 6630 µM | 310 | 1250 | 2500 µg/mL and 6630 µM |  |  |  |  |  |  |
| ON=Cc1cc[n+](Cc2ccccc2)cc1 [Py-Bn] |  |  |  |  |  |  |  | > 5000 | > 5000 µg/mL and > 17000 µM | > 5000 | > 5000 µg/mL and > 17000 µM | > 5000 µg/mL and > 17000 µM | > 5000 µg/mL and > 17000 µM | > 5000 | MIC ([4]; ATCC25922, 18 h): 1250 µg/mL and 4260 µM |
| ON=Cc1cc[n+](CCCCCCCCBr)cc1.[Br-] [Py-C8Br, N-(8-bromooctyl)-4-hydroxyiminomethylpyridinium bromide] | 100 to 101 |  |  |  |  |  |  | 2500 | > 5000 µg/mL and > 12700 µM | 2500 | 2500 µg/mL and 6340 µM | 1250 µg/mL and 3170 µM | > 5000 µg/mL and > 12700 µM | 5000 | MIC [4, 16]: 1250 µg/mL and 3170 µM |
| ON=Cc1cc[n+](CCCCCCCCCCBr)cc1.[Br-] [Py-C10Br, N-(10-bromodecyl)-4-hydroxyiminomethylpyridinium bromide] | 103 to 105 |  |  |  |  |  |  | 310 | 5000 µg/mL and 11800 µM | 630 | 5000 µg/mL and 11800 µM | 5000 µg/mL and 11800 µM | > 5000 µg/mL and > 11800 µM | 630 | MIC [4, 16]: 630 µg/mL and 1490 µM |
| ON=Cc1cc[n+](CCCCCCCCCCCCBr)cc1.[Br-] [Py-C12Br, N-(12-bromododecyl)-4-hydroxyiminomethylpyridinium bromide] | 109 to 110 |  |  |  |  |  |  | 310 | 2500 µg/mL and 5550 µM | 630 | 1250 µg/mL and 2780 µM | 1250 µg/mL and 2780 µM | 2500 µg/mL and 5550 µM | 160 | Number of local lesions (LLN ± SD) [1]: 6.3±1.6; Percentage of inhibition of local lesions [1]: 57.7%; MIC [4, 16]: 630 µg/mL and 1400 µM |

Reference: article PMC9315884, “New Membrane Active Antibacterial and Antiviral Amphiphiles Derived from Heterocyclic Backbone of Pyridinium-4-Aldoxime” (Pharmaceuticals, 2022)
